Data as given in patent US20240408047A1, “HYPOXIA INDUCIBLE FACTOR-2(ALPHA) INHIBITORS FOR THE TREATMENT OF BLADDER CANCER” (NIKANG THERAPEUTICS, INC., priority 2021, published 2024).

Assays:
[1] = tested on: nectin-4; settings: patients who progressed following treatment with chemotherapy and immunotherapy; cited from earlier work
[2] = tested on: RT4 xenograft model; experiment: Anti-tumor effect in mouse bladder cancer xenograft model RT4; type: in vivo, Balb/c Nude mouse
Experimental: (§1) Compound 1 was formulated with 0.5% methylcellulose. 4˜10×10^6 tumor cells in PBS and Corning® Matrigel (11 in volume) were inoculated subcutaneously at right flank for each Balb/c Nude mouse at 6-7 weeks of age for tumor development. Once tumors were 100-200 mm^3 in size, the tumor bearing mice were randomly grouped into 2 groups (n=8) and treatment started with vehicle bid and Compound 1 at 20 mg/kg bid, respectively, for 17-30 days. Tumor sizes were measured twice weekly in two dimensions using a caliper and the volumes were expressed in mm^3 using the formula V=0.5×a×b^2 where a and b were the long and short diameters of the tumor, respectively.

[3] = tested on: T24 cells; experiment: Hypoxia-induced mRNA upregulation of VEGFA and GLUT1 in T24 cells (quantitative PCR); type: cell-based; settings: 72 h, hypoxic (1% O2), Compound 1 at 1.0 μM
Experimental: T24 cells were treated with DMSO or 1.0 μM of Compound 1; control siRNA or siRNA specific for HIF-1α, HIF-2α, for 72 h under normoxic (20% O2) or hypoxic (1% O2) conditions. Total RNA was extracted using RNeasy mini kit (Qiagen, Catalog #74104) and QIAshredder (Qiagen, Catalog #79654). Then RNA was reverse-transcribed into cDNA using Applied Biosystems™ High-Capacity cDNA Reverse Transcription Kit (Applied Biosystems™ cat #4368814). The cDNA was used as templates to examine the mRNA expression of VEGFA and GLUT1 by quantitative polymerase chain reaction (PCR) assays (PowerUp SYBR Green Master Mix by Applied Biosystems™, cat #A25742), with GAPDH serving as control for normalization.

[4] = tested on: RT112 xenograft model; experiment: Anti-tumor effect in mouse bladder cancer xenograft model RT112; type: in vivo, Balb/c Nude mouse; settings: 20 mg/kg bid, 17-30 days
Experimental: as §1

[5] = tested on: T24 xenograft model; experiment: Anti-tumor effect in mouse bladder cancer xenograft model T24; type: in vivo, Balb/c Nude mouse; settings: 20 mg/kg bid, 17-30 days
Experimental: as §1

Molecule | objective response rate [1] [%] | anti-tumor effect in RT4 xenograft model ([2]; 20 mg/kg bid, 17-30 days) | TGI ([2]; RT4 model, 20 mg/kg of Compound 1) [%] | GLUT1 mRNA level induced by hypoxia [3] | VEGFA mRNA level induced by hypoxia [3] | anti-tumor effect in RT112 xenograft model [4] | anti-tumor effect in T24 xenograft model [5]
Enfortumab vedotin | 44 |  |  |  |  |  | 
N#Cc1cc(F)cc(Oc2ccc3c4c2[C@@H](F)C[C@]4(O)C(F)(F)C3(F)F)c1 [Compound 1, 3-fluoro-5-(((1S,2aR)-1,3,3,4,4-pentafluoro-2a-hydroxy-2,2a,3,4-tetrahydro-1H-cyclopenta[cd]inden-7-yl)oxy)benzonitrile] |  | significant tumor growth inhibition | 44 | significantly suppressed | significantly suppressed | marginal anti-tumor effect | complete tumor regression
